Data as given in ChEMBL document CHEMBL2311358, “Inhibitors of HIV-1 attachment. Part 7: indole-7-carboxamides as potent and orally bioavailable antiviral agents” (Bioorg Med Chem Lett, 2013).
In brackets after ≈: the same amount, converted by molar mass.

What was measured:
[1] = Clearance in rat at 1 mg/kg, iv; format: ADME, organism-based; parameters: dose 1 mg/kg, route intravenous; details: in vivo
[2] = Aqueous solubility of the compound in crystalline form at pH 6.5; format: physicochemical
[3] = Permeability across human Caco2 cells at pH 6.5; format: ADME, cell-based; details: Caco-2, pH 6.5, read-out: permeability
[4] = Half life in human liver microsomes; format: ADME, Microsome
[5] = Cytotoxicity against human HeLa cells expressing CD4 assessed as cell viability after 6 days by XTT assay; format: cell-based
[6] = test system: Human immunodeficiency virus 1; assay: Antiviral activity against HIV1 JRFL infected in human HeLa cells expressing CD4 and CCR5 assessed as inhibition of single-cycle viral replication by luciferase reporter gene assay; format: functional, organism-based; details: Human immunodeficiency virus 1, JRFL
[7] = Oral bioavailability in rat at 5 mg/kg; format: ADME, organism-based; details: in vivo
[8] = Plasma protein binding in human; format: ADME, cell-free; details: read-out: PPB (converted)
[9] = Inhibition of CYP450 (unknown origin); format: ADME, Homo sapiens
[10] = test system: Hepatocyte; assay: Cytotoxicity against human hepatocytes expressing CYP3A4, CYP2C9, CYP2C19, CYP2D6; format: ADME, cell-based
[11] = Solubility of the compound in amorphous form in PEG 400 at pH 6.5; format: physicochemical; details: PEG 400, pH 6.5
[12] = AUC in monkey at 1 mg/kg, iv and 2.5 mg/kg, po; format: ADME, organism-based, Macaca mulatta; details: rhesus monkey, plasma
[13] = AUC in dog at 1 mg/kg, iv and 2.5 mg/kg, po; format: ADME, organism-based, Canis lupus familiaris; details: plasma
[14] = AUC in rat at 1 mg/kg, iv and 5 mg/kg, po; format: ADME, organism-based; details: plasma
[15] = Cmax in dog at 1 mg/kg, iv and 2.5 mg/kg, po; format: ADME, organism-based, Canis lupus familiaris; details: in vivo
[16] = Cmax in monkey at 1 mg/kg, iv and 2.5 mg/kg, po; format: ADME, organism-based, Macaca mulatta; details: rhesus monkey, in vivo
[17] = Cmax in rat at 1 mg/kg, iv and 5 mg/kg, po; format: ADME, organism-based; details: in vivo
[18] = Half life in dog at 1 mg/kg, iv; format: ADME, organism-based, Canis lupus familiaris; parameters: dose 1 mg/kg, route intravenous; details: in vivo
[19] = Half life in monkey at 1 mg/kg, iv; format: ADME, organism-based, Macaca mulatta; parameters: dose 1 mg/kg, route intravenous; details: rhesus monkey, in vivo
[20] = Oral bioavailability in monkey at 2.5 mg/kg; format: ADME, organism-based, Macaca mulatta; details: rhesus monkey, in vivo
[21] = Half life in rat at 1 mg/kg, iv; format: ADME, organism-based; parameters: dose 1 mg/kg, route intravenous; details: in vivo
[22] = Oral bioavailability in dog at 2.5 mg/kg; format: ADME, organism-based, Canis lupus familiaris; details: in vivo

SMILES | CC50 at 144 h [5] [nM] | EC50 [6] [nM] | other results
O=C(C(=O)N1CCN(C(=O)c2ccccc2)CC1)c1c[nH]c2cccc(F)c12 | > 300000 | 1.24 | clearance [1]: 48 mL/min/kg; solubility ([2]; buffer): 0.005 µg/mL (≈ 0.0132 µM); Papp [3]: 10 ×10⁻⁶ cm/s; half-life [4]: > 1.67 h
O=C(Nc1ccccn1)c1ccc(F)c2c(C(=O)C(=O)N3CCN(C(=O)c4ccccc4)CC3)c[nH]c12 | 69000 | 0.65 | –
O=C(Nc1nnn[nH]1)c1ccc(F)c2c(C(=O)C(=O)N3CCN(C(=O)c4ccccc4)CC3)c[nH]c12 | > 300000 | 0.4 | bioavailability [7]: < 1%; Papp [3]: < 1.5 ×10⁻⁶ cm/s; half-life [4]: > 1.67 h
O=C(Nc1nncs1)c1ccc(F)c2c(C(=O)C(=O)N3CCN(C(=O)c4ccccc4)CC3)c[nH]c12 | 1740 | 0.19 | –
CCn1nccc1NC(=O)c1ccc(F)c2c(C(=O)C(=O)N3CCN(C(=O)c4ccccc4)CC3)c[nH]c12 | 166000 | 3.07 | –
Cc1cc(NC(=O)c2ccc(F)c3c(C(=O)C(=O)N4CCN(C(=O)c5ccccc5)CC4)c[nH]c23)on1 | > 300000 | 0.94 | –
O=C(NC1=NCCS1)c1ccc(F)c2c(C(=O)C(=O)N3CCN(C(=O)c4ccccc4)CC3)c[nH]c12 | > 300000 | 0.02 | –
O=C(Nc1nccs1)c1ccc(F)c2c(C(=O)C(=O)N3CCN(C(=O)c4ccccc4)CC3)c[nH]c12 | 89000 | 0.057 | Papp [3]: > 30 ×10⁻⁶ cm/s; half-life [4]: 0.0683 h
Cc1csc(NC(=O)c2ccc(F)c3c(C(=O)C(=O)N4CCN(C(=O)c5ccccc5)CC4)c[nH]c23)n1 | 29000 | 0.0058 | –
O=C(Nc1nc2ccccc2s1)c1ccc(F)c2c(C(=O)C(=O)N3CCN(C(=O)c4ccccc4)CC3)c[nH]c12 | 81000 | 0.32 | –
O=C(Nc1nc2ccccc2[nH]1)c1ccc(F)c2c(C(=O)C(=O)N3CCN(C(=O)c4ccccc4)CC3)c[nH]c12 | 9200 | 0.04 | –
O=C(Nc1nc(-c2ccccc2)cs1)c1ccc(F)c2c(C(=O)C(=O)N3CCN(C(=O)c4ccccc4)CC3)c[nH]c12 | > 300000 | 0.21 | –
O=C(NCc1ccco1)c1ccc(F)c2c(C(=O)C(=O)N3CCN(C(=O)c4ccccc4)CC3)c[nH]c12 | 71000 | 1.3 | –
O=C(NCc1cccs1)c1ccc(F)c2c(C(=O)C(=O)N3CCN(C(=O)c4ccccc4)CC3)c[nH]c12 | 44000 | 1.06 | –
O=C(NCCc1cc2ccccc2[nH]1)c1ccc(F)c2c(C(=O)C(=O)N3CCN(C(=O)c4ccccc4)CC3)c[nH]c12 | > 300000 | 1.08 | –
CS(=O)(=O)NC(=O)c1ccc(F)c2c(C(=O)C(=O)N3CCN(C(=O)c4ccccc4)CC3)c[nH]c12 | > 300000 | 2.64 | –
O=C(NS(=O)(=O)c1ccccc1)c1ccc(F)c2c(C(=O)C(=O)N3CCN(C(=O)c4ccccc4)CC3)c[nH]c12 | > 300000 | 0.29 | bioavailability [7]: < 2%; Papp [3]: 1.5 ×10⁻⁶ cm/s; half-life [4]: > 1.67 h
COc1ccc(C(N)=O)c2[nH]cc(C(=O)C(=O)N3CCN(C(=O)c4ccccc4)CC3)c12 | 244000 | 0.76 | –
CNC(=O)c1ccc(OC)c2c(C(=O)C(=O)N3CCN(C(=O)c4ccccc4)CC3)c[nH]c12 | > 300000 | 0.76 | Papp [3]: 3.9 ×10⁻⁶ cm/s; half-life [4]: 0.667 h

SMILES | CC50 at 144 h [5] [nM] | EC50 [6] [nM] | other results
C[C@@H]1CN(C(=O)c2ccccc2)CCN1C(=O)C(=O)c1c[nH]c2c(C(N)=O)ccc(F)c12 | 141000 | 0.14 | Papp [3]: 5.1 ×10⁻⁶ cm/s; half-life [4]: 0.417 h
CNC(=O)c1ccc(F)c2c(C(=O)C(=O)N3CCN(C(=O)c4ccccc4)C[C@H]3C)c[nH]c12 | > 300000 | 0.75 | –
NC(=O)c1ccc(F)c2c(C(=O)C(=O)N3CCN(C(=O)c4ccccn4)CC3)c[nH]c12 | > 300000 | 7.59 | –
C[C@@H]1CN(C(=O)c2ccccn2)CCN1C(=O)C(=O)c1c[nH]c2c(C(N)=O)ccc(F)c12 | > 300000 | 1.42 | –
O=C(Nc1ccncc1)c1ccc(F)c2c(C(=O)C(=O)N3CCN(C(=O)c4ccccc4)CC3)c[nH]c12 | > 300000 | 3.37 | –
O=C(Nc1cccnc1)c1ccc(F)c2c(C(=O)C(=O)N3CCN(C(=O)c4ccccc4)CC3)c[nH]c12 | 132000 | 9.09 | –
NC(=O)c1ccc(F)c2c(C(=O)C(=O)N3CCN(C(=O)c4ccccc4)CC3)c[nH]c12 | > 300000 | 2.03 | bioavailability [7]: 21%; Papp [3]: 2.4 ×10⁻⁶ cm/s; half-life [4]: > 1.67 h
CNC(=O)c1ccc(F)c2c(C(=O)C(=O)N3CCN(C(=O)c4ccccc4)CC3)c[nH]c12 | > 300000 | 0.52 | fraction unbound [8]: 0.011; IC50 [9]: > 90000 nM; IC50 [10]: > 57000 nM; clearance [1]: 12 mL/min/kg; solubility [11]: 18000 µg/mL (≈ 41200 µM); solubility ([2]; aqueous, read-out: solubility): 33 µg/mL (≈ 75.6 µM); AUC [12]: 3430 ng·h/mL; AUC [13]: 7030 ng·h/mL; AUC [14]: 4620 ng·h/mL; Cmax [15]: 1560 ng/mL; Cmax [16]: 1330 ng/mL; Cmax [17]: 843 ng/mL; half-life [18]: 2.32 h; half-life [19]: 4.18 h; bioavailability [20]: 70%; half-life [21]: 2.18 h; bioavailability [7]: 65%; bioavailability [22]: 93%; Papp [3]: 11.2 ×10⁻⁶ cm/s; half-life [4]: 1.35 h
CN(C)C(=O)c1ccc(F)c2c(C(=O)C(=O)N3CCN(C(=O)c4ccccc4)CC3)c[nH]c12 | > 300000 | 407 | –
CONC(=O)c1ccc(F)c2c(C(=O)C(=O)N3CCN(C(=O)c4ccccc4)CC3)c[nH]c12 | > 300000 | 3.83 | –
NNC(=O)c1ccc(F)c2c(C(=O)C(=O)N3CCN(C(=O)c4ccccc4)CC3)c[nH]c12 | > 300000 | 2.69 | –
COCCNC(=O)c1ccc(F)c2c(C(=O)C(=O)N3CCN(C(=O)c4ccccc4)CC3)c[nH]c12 | 298000 | 18.8 | –
NCCNC(=O)c1ccc(F)c2c(C(=O)C(=O)N3CCN(C(=O)c4ccccc4)CC3)c[nH]c12 | 135000 | 12.8 | –
CN(C)CCNC(=O)c1ccc(F)c2c(C(=O)C(=O)N3CCN(C(=O)c4ccccc4)CC3)c[nH]c12 | > 300000 | 316 | –
O=C(NCCN1CCOCC1)c1ccc(F)c2c(C(=O)C(=O)N3CCN(C(=O)c4ccccc4)CC3)c[nH]c12 | > 300000 | 7.95 | –
CC(=O)N1CC(NC(=O)c2ccc(F)c3c(C(=O)C(=O)N4CCN(C(=O)c5ccccc5)CC4)c[nH]c23)C1 | > 300000 | 11.2 | –
O=C(NCc1ccccc1)c1ccc(F)c2c(C(=O)C(=O)N3CCN(C(=O)c4ccccc4)CC3)c[nH]c12 | > 300000 | 109 | –
O=C(NCc1nc2ccccc2[nH]1)c1ccc(F)c2c(C(=O)C(=O)N3CCN(C(=O)c4ccccc4)CC3)c[nH]c12 | > 300000 | 6.73 | –
COc1ncc(OC)c2c(C(=O)C(=O)N3CCN(C(=O)c4ccccc4)CC3)c[nH]c12 | > 300000 | 0.75 | –
